From patent publication US7847127B2, “Process for preparation of atovaquone and novel intermediates thereof” (IPCA Laboratories Limited, priority 2007, dated 2010)

Assay: Stability of the physical form on storage under ambient conditions
Type: physicochemical
Conditions: stable = remains substantially in the same physical form for at least a month at 20° C./60% RH
Description: The term “stable,” as used herein, refers to the tendency to remain substantially in the same physical form for at least a month, preferably at least 6 months, more preferably at least a year, still more preferably at least 2 years, when stored under ambient conditions (20° C./60% RH) without external treatment. Substantially the same physical form in this context means that at least 50%, preferably at least 80% and more preferably at least 90% of the crystalline form remains.

Compound: O=C1C(O)=C([C@H]2CC[C@H](c3ccc(Cl)cc3)CC2)C(=O)c2ccccc21 [Form IPCA-ATO, trans-2-[4-(4-chlorophenyl)cyclohexyl]-3-hydroxy-1,4-naphthoquinone]
- Stability of the crystalline form: stable
